Results: PMC10343272, “Synthesis and Evaluation of ^99mTc-Labeled PSMA-Targeted Tracers Based on the Lys-Urea-Aad Pharmacophore for Detecting Prostate Cancer with Single Photon Emission Computed Tomography” (Molecules, 2023)
Like-named read-outs stand apart in the source and are kept apart here.

Tests used:
PSMA [1] = biological target: T1, PSMA (Homo sapiens, UniProt Q04609); conditions: previous observation; cited from earlier work
T1 construct: host or cells: LNCaP cells

PSMA [2] = biological target: T1, PSMA; test: In vitro competition binding assay ([^18F]DCFPyL displacement on LNCaP cells); conditions: inhibition of [^18F]DCFPyL binding to PSMA-expressing LNCaP cells, n = 3
Protocol: All tested PSMA-targeted ligands inhibited the binding of [^18F]DCFPyL to PSMA-expressing LNCaP cells in a concentration-dependent manner (Figure 2, n = 3).
The in vitro competition binding assays were performed following our previously published procedures. Briefly, LNCaP cells in RMPI medium with FBS, penicillin, and streptomycin were plated onto 24-well poly-D-lysine coated plates at 200,000 cells/well 48 h prior to binding assay. The growth medium was removed and the cells were rinsed with HEPES-buffered saline (50 mM HEPES, pH 7.5, 0.9% NaCl) two times before 400 µL of HEPES buffer were added to each well. Varying concentrations of PSMA-targeted ligands (50 µL) were added to each well in triplicate before adding 0.1 nmol/50 µL of [^18F]DCFPyL. After the additions, plates were incubated and swirled at 37 °C. After 1 h incubation, the solutions were removed, and cells were washed with HEPES-buffered saline twice. Finally, 400 µL of 0.25% trypsin solution were added to each well. After 10 min incubation, cells were collected for counting using a PerkinElmer (Waltham, MA, USA) Wizard2 2480 automatic gamma counter. The Ki values were analyzed with GraphPad (San Diego, CA, USA) Prism 7 software using nonlinear regression fit.

T1 sequence (Q04609 whole entry): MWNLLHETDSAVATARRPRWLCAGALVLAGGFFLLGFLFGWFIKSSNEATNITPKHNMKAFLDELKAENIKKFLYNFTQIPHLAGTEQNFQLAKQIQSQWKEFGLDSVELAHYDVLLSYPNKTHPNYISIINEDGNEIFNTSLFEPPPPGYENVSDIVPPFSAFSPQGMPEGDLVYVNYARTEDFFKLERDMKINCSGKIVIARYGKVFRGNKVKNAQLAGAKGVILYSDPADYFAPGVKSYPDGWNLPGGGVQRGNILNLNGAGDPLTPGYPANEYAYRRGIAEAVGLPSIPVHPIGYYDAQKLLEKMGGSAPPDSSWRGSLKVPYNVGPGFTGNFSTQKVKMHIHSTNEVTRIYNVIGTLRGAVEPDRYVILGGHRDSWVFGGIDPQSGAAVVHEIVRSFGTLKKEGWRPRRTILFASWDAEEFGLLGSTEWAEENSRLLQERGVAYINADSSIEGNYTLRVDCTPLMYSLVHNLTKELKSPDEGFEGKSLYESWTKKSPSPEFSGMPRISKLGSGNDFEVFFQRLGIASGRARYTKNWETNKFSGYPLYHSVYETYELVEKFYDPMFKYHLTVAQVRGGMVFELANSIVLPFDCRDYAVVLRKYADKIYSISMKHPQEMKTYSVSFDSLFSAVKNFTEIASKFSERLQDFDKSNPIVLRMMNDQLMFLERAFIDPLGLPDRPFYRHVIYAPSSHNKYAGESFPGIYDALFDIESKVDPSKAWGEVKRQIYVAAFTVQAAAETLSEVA

SMILES	Ki (PSMA [2])	Ki (PSMA [1])
O=C(O)CCC[C@H](NC(=O)N[C@@H](CCCCNC(=O)[C@H](Cc1c2ccccc2cc2ccccc12)NC(=O)[C@H]1CC[C@H](CNC(=O)CN2CCN(CC(=O)O)CCN(CC(=O)O)CCN(CC(=O)O)CC2)CC1)C(=O)O)C(=O)O [HTK03149]	–	6.99 nM
NNc1ccc(C(=O)N[C@@H](Cc2ccc3ccccc3c2)C(=O)NCCCC[C@H](NC(=O)N[C@@H](CCC(=O)O)C(=O)O)C(=O)O)cn1 [HYNIC-iPSMA, reference compound]	3.11 nM	–
NNc1ccc(C(=O)N[C@@H](Cc2ccc3ccccc3c2)C(=O)NCCCC[C@H](NC(=O)N[C@@H](CCCC(=O)O)C(=O)O)C(=O)O)cn1 [KL01127]	8.96 ± 0.58 nM	–

Further lines, with some results ahead:

Ki (PSMA [2])	SMILES	Ki (PSMA [1])
11.6 ± 1.5 nM	NNc1ccc(C(=O)NC[C@H]2CC[C@H](C(=O)N[C@@H](Cc3c4ccccc4cc4ccccc34)C(=O)NCCCC[C@H](NC(=O)N[C@@H](CCCC(=O)O)C(=O)O)C(=O)O)CC2)cn1 [HTK03180]	–
10.7 nM	NNc1ccc(C(=O)NC[C@H]2CC[C@H](C(=O)N[C@@H](Cc3c4ccccc4cc4ccccc34)C(=O)NCCCC[C@H](NC(=O)N[C@@H](CCC(=O)O)C(=O)O)C(=O)O)CC2)cn1 [KL01099]	–
